In patent US20260206761A1, “HETEROARYL-TRIAZOLE COMPOUNDS AS PESTICIDES” (Bayer Aktiengesellschaft, priority 2019, published 2026):

How the values were obtained:
Type in all cases: in vivo
[1] = test system: Rhipicephalus microplus larvae (strain Parkhurst, resistant against synthetic pyrethroids); assay: Rhipicephalus (Boophilus) microplus in-vitro contact test, larval cattle tick; conditions: after 48 hours, read-out: activity (efficacy: larvae dead or moribund); for pest or weed control at 100 g/ha: application rate 1 pg/cm^2 (=100 g/ha); for pest or weed control at 500 g/ha: application rate 5 pg/cm^2 (=500 g/ha)
In short: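 Acetone solutions coated onto inner walls of glass tubes by rotation (900 ppm giving 5 μg/cm^2); after evaporation, 20-50 larvae added per tube and held at 27° C., 85% relative humidity. Efficacy read after 48 h from negative geotactic behaviour; 100% = all larvae dead or moribund.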

[2] = test system: larvae of the southern green stink bug (Nezara viridula); assay: Nezara viridula spray test; conditions: 96 h, after 4 days; for mortality at 100 g/ha: application rate 100 g/ha; for mortality at 500 g/ha: application rate 500 g/ha
In short: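 Compound in acetone/dimethylformamide, diluted in water with 1000 ppm alkylarylpolyglycol ether emulsifier, sprayed onto barley plants carrying stink bug larvae. Mortality (%) scored after 4 days, 100% meaning all insects killed.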

[3] = test system: green peach aphid (Myzus persicae); assay: Myzus persicae spray test; conditions: 120 h, after 5 days; for mortality at 100 g/ha: application rate 100 g/ha; for mortality at 500 g/ha: application rate 500 g/ha
In short: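 Chinese cabbage leaf disks carrying all instars of M. persicae sprayed with compound in acetone/DMF, diluted in water with 1000 ppm alkylarylpolyglycol ether emulsifier. Percent mortality scored after 5 days (100% = all aphids killed).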

[4] = test system: adult brown dog ticks (Rhipicephalus sanguineus); assay: Rhipicephalus sanguineus in-vitro contact test, adult brown dog ticks; conditions: after 48 hours, read-out: activity (efficacy: ticks dead or moribund); for pest or weed control at 100 g/ha: application rate 1 pg/cm^2 (=100 g/ha); for pest or weed control at 5 µg/cm2, 500 g/ha: application rate 5 μg/cm^2 (=500 g/ha)
In short: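 Acetone solution (900 ppm giving 5 μg/cm²) coated on inner walls of glass tubes; after drying, 5-10 adult ticks added and held at room temperature 48 h. Ticks then placed on 45-50 °C plate ≤5 min; those unable to climb away scored dead/moribund, efficacy as % affected.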

[5] = test system: Anopheles funestus strain FUMOZ-R; assay: Anopheles funestus test (ANPHFU surface treatment & contact assay); conditions: 24 hours after contact, read-out: efficacy (mortality); for mortality at 4 mg/m2: surface concentration 4 mg/m^2, exposure 30 minutes; for mortality at 20 mg/m2: surface concentration 20 mg/m^2, exposure 30 minutes
In short: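 Compound dissolved in acetone at 2 mg/ml with 2000 ppm RME, pipetted onto glazed tile; acetone evaporated. Adult FUMOZ-R mosquitoes exposed to dried surface for 30 min. Percent mortality scored 24 h after contact.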

[6] = test system: Culex quinquefasciatus strain P00; assay: Culex quinquefasciatus test (CULXFA surface treatment & contact assay); conditions: 24 hours after contact, read-out: efficacy (mortality); for mortality at 4 mg/m2: surface concentration 4 mg/m^2, exposure 30 minutes; for mortality at 20 mg/m2: surface concentration 20 mg/m^2, exposure 30 minutes
In short: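 Compound in acetone (2 mg/ml) with 2000 ppm rapeseed oil methyl ester, dried onto glazed tile. Adult mosquitoes exposed to the treated surface for 30 min. Percent mortality scored 24 h after contact.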

[7] = test system: green peach aphid (Myzus persicae); assay: Myzus persicae oral test; conditions: 120 h, application rate 4 ppm, after 5 days
In short: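 Compound was dissolved at 1 part by weight in 100 parts acetone, then diluted with water to test concentration and combined with IPL41 insect medium (33%+15% sugar). A mixed aphid population fed on this through a parafilm seal, and mortality (%) was scored after 5 days.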

Molecule Cc1nc([C@H](C)NC(=O)c2cc(C(F)(F)F)cc(S(C)(=O)=O)c2)n(-c2ccc(C#N)cn2)n1 [II-52] has a pest or weed control at 100 g/ha [1] of 100%, a pest or weed control at 500 g/ha [1] of 100% and a mortality at 100 g/ha [2] of 100%. It also gave a mortality at 100 g/ha [3] of 90%, a pest or weed control at 100 g/ha [4] of 100% and a pest or weed control at 5 µg/cm2, 500 g/ha [4] of 100%.
Cc1nc([C@H](C)NC(=O)c2cc(C(F)(F)F)n(C)n2)n(-c2ncccn2)n1 [II-25] was tested, and the mortality at 4 mg/m2 [5] was 80 to 100%, the mortality at 20 mg/m2 [5] was 80 to 100% and the pest or weed control at 100 g/ha [1] was 100%. For the same molecule, the pest or weed control at 500 g/ha [1] was 100%, the mortality at 100 g/ha [2] was 100% and the mortality at 500 g/ha [2] was 100%. It also gave a mortality at 500 g/ha [3] of 90%, a mortality at 4 mg/m2 [6] of 80 to 100% and a mortality at 20 mg/m2 [6] of 80 to 100%. For the same molecule, the pest or weed control at 100 g/ha [4] was 100% and the pest or weed control at 5 µg/cm2, 500 g/ha [4] was 100%.
C[C@H](NC(=O)c1cc(OC(F)(F)F)cc(C2CC2)c1)c1ncnn1-c1ccc(Cl)cn1 [II-23] showed a mortality at 20 mg/m2 [5] of 80 to 100%, a pest or weed control at 100 g/ha [1] of 100% and a pest or weed control at 500 g/ha [1] of 100%. It also gave a mortality at 100 g/ha [2] of 100%, a mortality at 500 g/ha [2] of 100% and a mortality at 100 g/ha [3] of 100%. The mortality at 500 g/ha [3] was 100%, the mortality at 4 mg/m2 [6] was 80 to 100% and the mortality at 20 mg/m2 [6] was 80 to 100%. For the same molecule, the pest or weed control at 100 g/ha [4] was 100% and the pest or weed control at 5 µg/cm2, 500 g/ha [4] was 100%.
Molecule Cc1nc([C@H](C)NC(=O)c2cc(C(F)(F)F)n(C)n2)n(-c2ccc(C#N)cn2)n1 [II-7] has a mortality at 4 mg/m2 [5] of 80 to 100%, a pest or weed control at 500 g/ha [1] of 100% and a mortality at 500 g/ha [2] of 90%. It also gave a mortality at 20 mg/m2 [6] of 80 to 100%.
For Cc1nc([C@H](C)NC(=O)c2cc(Cl)cc(C3(C#N)CC3)c2)n(-c2ccc(C#N)cn2)n1 [II-38], the mortality at 4 ppm [7] was 100%, the pest or weed control at 100 g/ha [1] was 100% and the pest or weed control at 500 g/ha [1] was 100%. The mortality at 100 g/ha [3] was 90%, the pest or weed control at 100 g/ha [4] was 100% and the pest or weed control at 5 µg/cm2, 500 g/ha [4] was 100%.
C[C@H](NC(=O)c1cc(C(F)(F)F)cc(S(C)(=O)=O)c1)c1ncnn1-c1ccc(Cl)cn1 [II-16] showed a mortality at 4 ppm [7] of 100%, a mortality at 4 mg/m2 [5] of 80 to 100% and a pest or weed control at 100 g/ha [1] of 100%. The pest or weed control at 500 g/ha [1] was 100%, the mortality at 100 g/ha [2] was 100% and the mortality at 500 g/ha [2] was 100%. The mortality at 4 mg/m2 [6] was 80 to 100%.
Cc1nc([C@H](C)NC(=O)c2cc(C(F)(F)F)cc(C3(C#N)CC3)c2)n(-c2ccc(Cl)cn2)n1 [II-50] was tested, and the mortality at 4 ppm [7] was 100%, the pest or weed control at 100 g/ha [1] was 100% and the pest or weed control at 500 g/ha [1] was 100%. The mortality at 100 g/ha [2] was 100%, the mortality at 100 g/ha [3] was 100% and the pest or weed control at 100 g/ha [4] was 100%. It also gave a pest or weed control at 5 µg/cm2, 500 g/ha [4] of 100%.
For Cc1nc([C@H](C)NC(=O)c2cc(Cl)nn2C)n(-c2ccc(C#N)cn2)n1 [II-11], the mortality at 4 mg/m2 [5] was 80 to 100%, the mortality at 20 mg/m2 [5] was 80 to 100% and the pest or weed control at 100 g/ha [1] was 100%. It also gave a pest or weed control at 500 g/ha [1] of 100%, a mortality at 4 mg/m2 [6] of 80 to 100% and a pest or weed control at 100 g/ha [4] of 80%. It also gave a pest or weed control at 5 µg/cm2, 500 g/ha [4] of 80%.
Molecule Cc1nc([C@H](C)NC(=O)c2cc(Cl)cc(S(=O)(=O)C(F)F)c2)n(-c2ccc(C#N)cn2)n1 [II-35] has a mortality at 4 ppm [7] of 100%, a pest or weed control at 100 g/ha [1] of 100% and a pest or weed control at 500 g/ha [1] of 100%. The mortality at 100 g/ha [2] was 100%, the mortality at 500 g/ha [2] was 100% and the mortality at 100 g/ha [3] was 100%. For the same molecule, the mortality at 500 g/ha [3] was 100% and the pest or weed control at 5 µg/cm2, 500 g/ha [4] was 80%.
C[C@H](NC(=O)c1cc(C(F)(F)F)cc(S(=O)(=O)C2CC2)c1)c1ncnn1-c1ccc(C#N)cn1 [II-32] showed a mortality at 4 ppm [7] of 100%, a pest or weed control at 100 g/ha [1] of 100% and a pest or weed control at 500 g/ha [1] of 100%. For the same molecule, the mortality at 100 g/ha [2] was 100%, the mortality at 500 g/ha [2] was 100% and the mortality at 500 g/ha [3] was 90%. For the same molecule, the mortality at 4 mg/m2 [6] was 80 to 100%, the mortality at 20 mg/m2 [6] was 80 to 100% and the pest or weed control at 100 g/ha [4] was 100%. The pest or weed control at 5 µg/cm2, 500 g/ha [4] was 100%.
Work on Cc1nc([C@H](C)NC(=O)c2cc(Cl)cc(S(=O)(=O)C(F)F)c2)n(-c2ccc(Cl)cn2)n1 [II-36] yielded a mortality at 4 ppm [7] of 100%, a pest or weed control at 100 g/ha [1] of 100% and a pest or weed control at 500 g/ha [1] of 100%. For the same molecule, the mortality at 100 g/ha [2] was 100%, the mortality at 500 g/ha [2] was 100% and the mortality at 500 g/ha [3] was 90%. For the same molecule, the pest or weed control at 5 µg/cm2, 500 g/ha [4] was 80%.
